Measured values published in PubChem BioAssay (NCI).
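Dose response: 5 concentrations. Exposure: 48 h. Format: 96-well plates. Endpoint: linear interpolation; highest concentration if not reached. Here, GI50 denotes the concentration required for 50% inhibition of growth. TGI is the concentration that stops growth completely.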

Key:
Assay in all cases: NCI anticancer screen, dose series, 48 h
HL-60(TB) leukemia = tested on: HL-60(TB) leukemia
TK-10 renal = tested on: TK-10 renal
SR leukemia = tested on: SR leukemia
COLO 205 colon = tested on: COLO 205 colon
UO-31 renal = tested on: UO-31 renal
SK-OV-3 ovarian = tested on: SK-OV-3 ovarian
LOX IMVI melanoma = tested on: LOX IMVI melanoma
786-0 renal = tested on: 786-0 renal
RXF 393 renal = tested on: RXF 393 renal
SK-MEL-28 melanoma = tested on: SK-MEL-28 melanoma

## O=C1C2SC34c5c2c2ccccc2n5CCC3CCCN14 (centres undefined)
HL-60(TB) leukemia
  TGI: > 100 µM
TK-10 renal
  TGI: 87 µM
SR leukemia
  TGI: > 100 µM
COLO 205 colon
  TGI: > 100 µM
UO-31 renal
  TGI: > 100 µM
SK-OV-3 ovarian
  TGI: > 100 µM
LOX IMVI melanoma
  TGI: > 100 µM
786-0 renal
  TGI: > 100 µM
RXF 393 renal
  TGI: > 100 µM
SK-MEL-28 melanoma
  TGI: > 100 µM

## CC1=NN(c2nc(N)nc(/C(C#N)=C\c3ccc([N+](=O)[O-])s3)n2)C(C)(C)C1
TK-10 renal
  TGI: 1.26 µM
SR leukemia
  TGI: 0.152 µM
COLO 205 colon
  TGI: 1.61 µM
UO-31 renal
  TGI: 0.278 µM
SK-OV-3 ovarian
  TGI: 49.3 µM
LOX IMVI melanoma
  TGI: 0.3 µM
786-0 renal
  TGI: 0.289 µM
SK-MEL-28 melanoma
  TGI: 1.21 µM

## CCOC(=O)CCC(NC(=O)Cc1ccc(Nc2nc3cc(F)c(F)cc3nc2C(=O)OCC)cc1)C(=O)OCC (centres undefined)
HL-60(TB) leukemia
  TGI: 50 µM
TK-10 renal
  TGI: > 100 µM
SR leukemia
  TGI: 55.9 µM
COLO 205 colon
  TGI: > 100 µM
UO-31 renal
  TGI: > 100 µM
SK-OV-3 ovarian
  TGI: > 100 µM
LOX IMVI melanoma
  TGI: > 100 µM
786-0 renal
  TGI: > 100 µM
SK-MEL-28 melanoma
  TGI: > 100 µM

## O=C1Sc2cc3ccccc3cc2C(=O)Sc2ccc(Br)cc21
HL-60(TB) leukemia
  TGI: > 100 µM
TK-10 renal
  TGI: 17.8 µM
SR leukemia
  TGI: 9.14 µM
COLO 205 colon
  TGI: 34.9 µM
SK-OV-3 ovarian
  TGI: 29.3 µM
LOX IMVI melanoma
  TGI: 3.97 µM
786-0 renal
  TGI: 5.63 µM
RXF 393 renal
  TGI: 7.88 µM
SK-MEL-28 melanoma
  TGI: 9.79 µM

## COc1cccc(CCNC(=O)Cc2ccccc2CCO)c1
HL-60(TB) leukemia
  TGI: > 100 µM
TK-10 renal
  TGI: > 100 µM
SR leukemia
  TGI: > 100 µM
COLO 205 colon
  TGI: > 100 µM
UO-31 renal
  TGI: > 100 µM
SK-OV-3 ovarian
  TGI: > 100 µM
786-0 renal
  TGI: > 100 µM
RXF 393 renal
  TGI: > 100 µM
SK-MEL-28 melanoma
  TGI: > 100 µM

## COC(=O)/C=C(\C(=O)OC)C1C(=O)Oc2c(C)c(=O)c3ccccc3n21 (centres undefined)
HL-60(TB) leukemia
  TGI: > 100 µM
TK-10 renal
  TGI: > 100 µM
SR leukemia
  TGI: > 100 µM
COLO 205 colon
  TGI: > 100 µM
SK-OV-3 ovarian
  TGI: > 100 µM
LOX IMVI melanoma
  TGI: > 100 µM
786-0 renal
  TGI: > 100 µM
RXF 393 renal
  TGI: > 100 µM
SK-MEL-28 melanoma
  TGI: > 100 µM

## COc1cc2c(cc1OC)C(CC1=C(c3ccccc3)CN3CCc4cc(OC)c(OC)cc4C3C1)NCC2 (centres undefined)
HL-60(TB) leukemia
  TGI: 28.6 µM
TK-10 renal
  TGI: 32.7 µM
COLO 205 colon
  TGI: 31.4 µM
UO-31 renal
  TGI: 23.4 µM
SK-OV-3 ovarian
  TGI: 43.9 µM
LOX IMVI melanoma
  TGI: 33.6 µM
786-0 renal
  TGI: 29.5 µM
RXF 393 renal
  TGI: 17.6 µM
SK-MEL-28 melanoma
  TGI: 28.5 µM

## CC(=O)CCn1c(=S)sc2ccccc21
HL-60(TB) leukemia
  TGI: > 100 µM
TK-10 renal
  TGI: > 100 µM
COLO 205 colon
  TGI: > 100 µM
UO-31 renal
  TGI: > 100 µM
SK-OV-3 ovarian
  TGI: > 100 µM
LOX IMVI melanoma
  TGI: > 100 µM
786-0 renal
  TGI: > 100 µM
RXF 393 renal
  TGI: > 100 µM
SK-MEL-28 melanoma
  TGI: > 100 µM

## NC(N)=NS(=O)(=O)c1ccc(NNc2c3ccccc3nc3c(C(=O)Nc4ccc(S(=O)(=O)Nc5ncccn5)cc4)cccc23)cc1
HL-60(TB) leukemia
  TGI: > 100 µM
COLO 205 colon
  TGI: > 100 µM
UO-31 renal
  TGI: 83.7 µM
786-0 renal
  TGI: > 100 µM
RXF 393 renal
  TGI: > 100 µM
SK-MEL-28 melanoma
  TGI: > 100 µM

## N#CC1C(=S)NC(c2ccccc2)=CC12CCCCC2 (centres undefined)
HL-60(TB) leukemia
  TGI: 52.1 µM
TK-10 renal
  TGI: 54.9 µM
SR leukemia
  TGI: 50.2 µM
COLO 205 colon
  TGI: > 100 µM
UO-31 renal
  TGI: 72.1 µM
LOX IMVI melanoma
  TGI: 40.7 µM
786-0 renal
  TGI: > 100 µM
RXF 393 renal
  TGI: > 100 µM
SK-MEL-28 melanoma
  TGI: 95.5 µM

## C=CCn1c(N)c(C#N)c(C#N)c1-c1ccccc1
HL-60(TB) leukemia
  TGI: > 100 µM
TK-10 renal
  TGI: > 100 µM
SR leukemia
  TGI: > 100 µM
COLO 205 colon
  TGI: > 100 µM
UO-31 renal
  TGI: > 100 µM
SK-OV-3 ovarian
  TGI: > 100 µM
LOX IMVI melanoma
  TGI: > 100 µM
786-0 renal
  TGI: > 100 µM
RXF 393 renal
  TGI: > 100 µM

## CC(=O)N=C1N(/C=C2\C(=O)Oc3ccccc3C2=O)C(=O)/C(=C/c2cccc(Cl)c2Cl)N1C
HL-60(TB) leukemia
  TGI: > 100 µM
SR leukemia
  TGI: 54.6 µM
COLO 205 colon
  TGI: 74 µM
SK-OV-3 ovarian
  TGI: 39.4 µM
LOX IMVI melanoma
  TGI: > 100 µM
786-0 renal
  TGI: > 100 µM
RXF 393 renal
  TGI: 84.6 µM
SK-MEL-28 melanoma
  TGI: > 100 µM

## Cc1n(Cc2ccccc2)c2c([n+]1C)C(=O)c1ccccc1C2=O
TK-10 renal
  TGI: 1.67 µM
SR leukemia
  TGI: > 45.5 µM
COLO 205 colon
  TGI: 0.0794 µM
UO-31 renal
  TGI: 20.9 µM
SK-OV-3 ovarian
  TGI: 1.65 µM
LOX IMVI melanoma
  TGI: 0.401 µM
786-0 renal
  TGI: 0.877 µM
RXF 393 renal
  TGI: 2.42 µM
SK-MEL-28 melanoma
  TGI: 0.541 µM

## [N-]=[N+]=Nc1c([N+](=O)[O-])c(=O)n(-c2ccccc2)c2ccccc12
TK-10 renal
  TGI: 44.2 µM
SR leukemia
  TGI: 82.6 µM
COLO 205 colon
  TGI: 42.3 µM
UO-31 renal
  TGI: 32.2 µM
SK-OV-3 ovarian
  TGI: > 100 µM
LOX IMVI melanoma
  TGI: 43.9 µM
786-0 renal
  TGI: 43.4 µM
RXF 393 renal
  TGI: 38.9 µM
SK-MEL-28 melanoma
  TGI: 80.5 µM

## Cn1c(=O)c2c(ncn2CCNC(CO)C(O)c2ccc([N+](=O)[O-])cc2)n(C)c1=O (centres undefined)
HL-60(TB) leukemia
  TGI: > 100 µM
TK-10 renal
  TGI: > 100 µM
SR leukemia
  TGI: > 100 µM
COLO 205 colon
  TGI: > 100 µM
UO-31 renal
  TGI: > 100 µM
SK-OV-3 ovarian
  TGI: > 100 µM
LOX IMVI melanoma
  TGI: > 100 µM
786-0 renal
  TGI: > 100 µM
SK-MEL-28 melanoma
  TGI: > 100 µM

## CCO/C(O)=C(/C(=N)N1CCOCC1)C(=O)Nc1ccc(F)cc1
HL-60(TB) leukemia
  TGI: > 100 µM
TK-10 renal
  TGI: > 100 µM
COLO 205 colon
  TGI: > 100 µM
SK-OV-3 ovarian
  TGI: > 100 µM
LOX IMVI melanoma
  TGI: > 100 µM
786-0 renal
  TGI: > 100 µM
RXF 393 renal
  TGI: > 100 µM
SK-MEL-28 melanoma
  TGI: > 100 µM

## Nc1ccc2c(c1)C(=O)N1CCC[C@H]1C(=O)N2
TK-10 renal
  TGI: > 100 µM
SR leukemia
  TGI: > 100 µM
COLO 205 colon
  TGI: > 100 µM
UO-31 renal
  TGI: > 100 µM
SK-OV-3 ovarian
  TGI: > 100 µM
LOX IMVI melanoma
  TGI: > 100 µM
786-0 renal
  TGI: > 100 µM
RXF 393 renal
  TGI: > 100 µM
SK-MEL-28 melanoma
  TGI: > 100 µM

## O=C(O)CCCc1nc2c(n1Cc1ccccc1)C(=O)c1ccccc1C2=O
HL-60(TB) leukemia
  TGI: 88.3 µM
TK-10 renal
  TGI: > 100 µM
SR leukemia
  TGI: > 100 µM
COLO 205 colon
  TGI: > 100 µM
UO-31 renal
  TGI: > 100 µM
SK-OV-3 ovarian
  TGI: > 100 µM
LOX IMVI melanoma
  TGI: > 100 µM
786-0 renal
  TGI: > 100 µM
SK-MEL-28 melanoma
  TGI: > 100 µM

## NC(N)=NCCN1CC2CCC(CC2)C1
TK-10 renal
  TGI: > 100 µM
SR leukemia
  TGI: > 100 µM
COLO 205 colon
  TGI: > 100 µM
UO-31 renal
  TGI: > 100 µM
SK-OV-3 ovarian
  TGI: > 100 µM
LOX IMVI melanoma
  TGI: > 100 µM
786-0 renal
  TGI: > 100 µM
RXF 393 renal
  TGI: > 100 µM
SK-MEL-28 melanoma
  TGI: > 100 µM

## N#C[C@H](c1ccccn1)c1nc2ccccc2nc1Cl
HL-60(TB) leukemia
  TGI: > 100 µM
SR leukemia
  TGI: > 100 µM
COLO 205 colon
  TGI: > 100 µM
UO-31 renal
  TGI: > 100 µM
SK-OV-3 ovarian
  TGI: > 100 µM
786-0 renal
  TGI: > 100 µM
RXF 393 renal
  TGI: > 100 µM
SK-MEL-28 melanoma
  TGI: > 100 µM

## O=C(N/N=C(\c1ccccc1)c1ccccn1)NC1CCCCC1
TK-10 renal
  TGI: > 100 µM
SR leukemia
  TGI: > 100 µM
COLO 205 colon
  TGI: > 100 µM
UO-31 renal
  TGI: > 100 µM
SK-OV-3 ovarian
  TGI: > 100 µM
LOX IMVI melanoma
  TGI: 51.7 µM
786-0 renal
  TGI: > 100 µM
SK-MEL-28 melanoma
  TGI: > 100 µM

## C=CCc1cccc2cc(C(=O)NCc3ccccc3)c(=N)oc12
HL-60(TB) leukemia
  TGI: > 100 µM
SR leukemia
  TGI: > 100 µM
COLO 205 colon
  TGI: > 100 µM
SK-OV-3 ovarian
  TGI: > 100 µM
LOX IMVI melanoma
  TGI: > 100 µM
786-0 renal
  TGI: 91.4 µM
RXF 393 renal
  TGI: > 100 µM
SK-MEL-28 melanoma
  TGI: > 100 µM

## Cc1ccnc2[nH]c(-c3ccc4ccccc4c3)cc(=O)c12
HL-60(TB) leukemia
  GI50: 0.202 µM
  TGI: 0.609 µM
TK-10 renal
  TGI: 13.4 µM
SR leukemia
  TGI: 0.919 µM
COLO 205 colon
  TGI: 13.3 µM
UO-31 renal
  TGI: 16 µM
SK-OV-3 ovarian
  TGI: 5.32 µM
LOX IMVI melanoma
  TGI: 12.2 µM
786-0 renal
  TGI: 5.97 µM
SK-MEL-28 melanoma
  TGI: 14.9 µM

## Cc1ccc(S(=O)(=O)c2[nH]cc(/C(=C\C3CCCCC3)[N+](=O)[O-])c2C2CCCCC2)cc1
TK-10 renal
  TGI: 2.08 µM
SR leukemia
  TGI: 0.891 µM
COLO 205 colon
  TGI: 0.602 µM
UO-31 renal
  TGI: 1.32 µM
SK-OV-3 ovarian
  TGI: > 26.9 µM
LOX IMVI melanoma
  TGI: 0.439 µM
786-0 renal
  TGI: 0.442 µM
RXF 393 renal
  TGI: 0.407 µM
SK-MEL-28 melanoma
  TGI: 2.75 µM
